Measurements as given in ChEMBL document CHEMBL5038655, “Development of Novel Dihydrofuro[3,4-d]pyrimidine Derivatives as HIV-1 NNRTIs to Overcome the Highly Resistant Mutant Strains F227L/V106A and K103N/Y181C” (J Med Chem, 2022).

Experiments:
[1] = target: Human immunodeficiency virus type 1 reverse transcriptase (Human immunodeficiency virus 1, UniProt Q72547); assay: Inhibition of wild type HIV-1 reverse transcriptase using biotin-labelled dNTPs as substrate incubated for 2 hrs by ELISA
[2] = system: Human immunodeficiency virus 1; assay: Antiviral activity against HIV-1 harboring reverse transcriptase Y188L mutant infected in human MT4 cells assessed as protection against virus-induced cytopathic effect incubated for 5 days by MTT assay; conditions: Human immunodeficiency virus 1, MT4, 120 h
[3] = system: Human immunodeficiency virus 1; assay: Antiviral activity against HIV1 L1001 infected in human MT4 cells assessed as protection against virus-induced cytopathic effect incubated for 5 days by MTT assay; type: functional, organism-based; conditions: Human immunodeficiency virus 1, L1001, MT4, 120 h
[4] = system: Human immunodeficiency virus 1; assay: Antiviral activity against HIV-1 harboring reverse transcriptase E138K mutant infected in human MT4 cells assessed as protection against virus-induced cytopathic effect incubated for 5 days by MTT assay; conditions: Human immunodeficiency virus 1, MT4, 120 h
[5] = system: Human immunodeficiency virus 1; assay: Antiviral activity against HIV-1 harboring reverse transcriptase K103N mutant infected in human MT4 cells assessed as protection against virus-induced cytopathic effect incubated for 5 days by MTT assay; conditions: Human immunodeficiency virus 1, MT4, 120 h
[6] = Selectivity index, ratio of CC50 for human MT4 cells to EC50 for antiviral activity against HIV-1 IIIB infected in human MT4 cells; type: toxicity, cell-based; conditions: MT4 cells (uninfected and infected with HIV-1 IIIB), read-out: Ratio CC50/EC50
[7] = system: Human immunodeficiency virus 1; assay: Antiviral activity against HIV-1 IIIB harboring K103N/Y181C double mutant infected in human MT4 cells assessed as protection against virus-induced cytotoxicity incubated for 5 days by MTT assay; type: functional, organism-based; conditions: Human immunodeficiency virus 1, IIIB, MT4, 120 h
[8] = Cytotoxicity against human MT4 cells assessed as reduction in cell viability incubated for 5 days by MTT assay; type: toxicity, cell-based; conditions: time 5 day
[9] = system: Human immunodeficiency virus 1; assay: Antiviral activity against HIV-1 harboring reverse transcriptase F227L/V106A mutant infected in human MT4 cells assessed as protection against virus-induced cytopathic effect incubated for 5 days by MTT assay; conditions: Human immunodeficiency virus 1, MT4, 120 h
[10] = Selectivity index, ratio of CC50 for human MT4 cells to EC50 for antiviral activity against HIV-1 IIIB harboring K103N/Y181C double mutant infected in human MT4 cells; type: toxicity, cell-based; conditions: read-out: Ratio CC50/EC50
[11] = system: Human immunodeficiency virus 1; assay: Antiviral activity against HIV-1 harboring reverse transcriptase Y181C mutant infected in human MT4 cells assessed as protection against virus-induced cytopathic effect incubated for 5 days by MTT assay; conditions: Human immunodeficiency virus 1, MT4, 120 h
[12] = system: Human immunodeficiency virus 1; assay: Antiviral activity against HIV-1 IIIB infected in human MT4 cells assessed as protection against virus-induced cytotoxicity incubated for 5 days by MTT assay; type: functional, organism-based; conditions: Human immunodeficiency virus 1, IIIB, MT4, 120 h
[13] = system: Human immunodeficiency virus 1; assay: Antiviral activity against HIV-1 IIIB harboring K103N/Y181C double mutant; type: functional, organism-based; conditions: Human immunodeficiency virus 1, IIIB
[14] = Selectivity index, ratio of CC50 for human MT4 cells to EC50 for antiviral activity against HIV-1 IIIB; type: toxicity; conditions: read-out: Ratio CC50/EC50
[15] = system: Human immunodeficiency virus 1; assay: Antiviral activity against HIV-1 IIIB; type: functional, organism-based; conditions: Human immunodeficiency virus 1, IIIB
[16] = Selectivity index, ratio of CC50 for human MT4 cells to EC50 for antiviral activity against HIV-1 IIIB harboring K103N/Y181C double mutant; type: toxicity; conditions: read-out: Ratio CC50/EC50
[17] = Cytotoxicity against human MT4 cells; type: toxicity, cell-based

Row | Compound | IC50 [1] [nM] | EC50 [2] [nM] | EC50 [3] [nM] | EC50 [4] [nM] | EC50 [5] [nM] | selectivity ratio [6] | EC50 [7] [nM] | CC50 at 120 h [8] [nM] | EC50 [9] [nM] | selectivity ratio [10] | EC50 [11] [nM] | EC50 [12] [nM] | other results
1 | Cc1cc(/C=C/C#N)cc(C)c1Oc1nc(Nc2ccc(N3CCC(NS(N)(=O)=O)CC3)cc2)nc2c1COC2 | 1320 |  |  |  |  |  |  |  |  |  |  |  | 
2 | Cc1cc(/C=C/C#N)cc(C)c1Oc1nc(Nc2ccc(N3CCC(NS(C)(=O)=O)CC3)cc2)nc2c1COC2 | 460 |  |  |  |  |  |  |  |  |  |  |  | 
3 | Cc1cc(/C=C/C#N)cc(C)c1Oc1nc(NC2CCN(Cc3ccc(N)cc3)CC2)nc2c1COC2 | 190 | 51.4 | 10.2 | 9.16 | 5.58 | 8020 | 53.5 | 27000 | 37.6 | 505 | 9.36 | 3.37 | 
4 | Cc1cc(/C=C/C#N)cc(C)c1Oc1nc(NC2CCN(Cc3ccc(S(C)(=O)=O)cc3)CC2)nc2c1COC2 | 150 | 41.4 | 5.18 | 15.4 | 6.47 | 2260 | 34.6 | 9790 | 16.3 | 283 | 9.96 | 4.33 | 
5 | Cc1cc(/C=C/C#N)cc(C)c1Oc1nc(Nc2ccc(CN3CCN(S(C)(=O)=O)CC3)cc2)nc2c1COC2 | 150 |  |  |  |  |  |  |  |  |  |  |  | 
6 | Cc1cc(/C=C/C#N)cc(C)c1Oc1nc(Nc2ccc(N3CCN(S(C)(=O)=O)CC3)cc2)nc2c1COC2 | 180 |  |  |  |  |  |  |  |  |  |  |  | 
7 | Cc1cc(/C=C/C#N)cc(C)c1Oc1nc(NC2CCN(Cc3ccc(C(F)(F)F)cc3)CC2)nc2c1COC2 | 360 | 282 | 34.5 | 129 | 30.1 | 256 | 190 | 5010 | 199 | 26 | 65.6 | 19.5 | 
8 | Cn1c(Cn2ccc(C(F)(F)F)c(Oc3cc(Cl)cc(C#N)c3)c2=O)n[nH]c1=O [DORAVIRINE] |  |  |  |  |  |  |  |  |  |  |  |  | EC50 [13]: 14.5 nM; selectivity ratio [14]: > 21800; EC50 [15]: 13.3 nM; selectivity ratio [16]: > 20100; CC50 [17]: > 293000 nM
9 | Cc1cc(/C=C/C#N)cc(C)c1Oc1nc(NC2CCN(c3ccc(NS(N)(=O)=O)cc3)CC2)nc2c1COC2 | 120 | 141 | 1250 | 34.6 | 13.1 | 1370 | 88.9 | 23000 | 19.9 | 260 | 46.5 | 16.8 | 
10 | Cc1cc(/C=C/C#N)cc(C)c1Oc1nc(Nc2ccc(N3CCC(NS(C)(=O)=O)C3)cc2)nc2c1COC2 (stereo unspecified) | 180 |  |  |  |  |  |  |  |  |  |  |  | 
11 | Cc1cc(/C=C/C#N)cc(C)c1Oc1nc(Nc2ccc(C3CCCN(S(N)(=O)=O)CC3)cc2)nc2c1COC2 (stereo unspecified) | 90 |  |  |  |  |  |  |  |  |  |  |  | 
12 | Cc1cc(/C=C/C#N)cc(C)c1Oc1nc(Nc2ccc(C3CCCN(S(C)(=O)=O)CC3)cc2)nc2c1COC2 (stereo unspecified) | 230 |  |  |  |  |  |  |  |  |  |  |  | 
13 | Cc1cc(/C=C/C#N)cc(C)c1Oc1nc(NC2CCN(c3ccc(C(N)=O)cc3)CC2)nc2c1COC2 | 60 |  |  |  |  | > 97900 | 992 | > 233000 |  | > 234 |  | 2.38 | 
